This note sets out measurements from PubChem BioAssay AID248 (DTP/NCI, 2004).

Structures are written as SMILES. Inconclusive results and toxic doses are left out.

The experiment has as its system L1210 leukemia ip in BDF1 mice, survival T/C. The experiment is described as follows: NCI In Vivo Anticancer Drug Screen. Data for tumor model L1210 Leukemia (intraperitoneal) in B6D2F1 (BDF1) mice. To be noted: endpoint: mean survival time, higher = longer survival. The gist of the method: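 Tumor was transplanted into mice, which were then dosed with test compound or vehicle alone. Survival was recorded for each group, and the treated figure was expressed relative to the control figure.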

Where [1] appears, read: dose: 100.0 mg/kg/injection, schedule: Q01DX009 (ip), vehicle: saline with Tween-80.
[2] abbreviates: dose: 100.0 mg/kg/injection, schedule: Q04DX003 (ip), vehicle: saline with Tween-80.
The mark [3] stands for this setting: dose: 200.0 mg/kg/injection, schedule: Q01DX009 (ip), vehicle: saline with Tween-80.
[4] abbreviates: dose: 200.0 mg/kg/injection, schedule: Q04DX003 (ip), vehicle: saline with Tween-80.
[5] abbreviates: dose: 400.0 mg/kg/injection, schedule: Q04DX003 (ip), vehicle: saline with Tween-80.
[6] abbreviates: dose: 100.0 mg/kg/injection, schedule: Q04DX002 (ip), vehicle: Klucel (hydroxypropylcellulose) (HPC).
[7] abbreviates: dose: 200.0 mg/kg/injection, schedule: Q04DX002 (ip), vehicle: Klucel (hydroxypropylcellulose) (HPC).
Where [8] appears, read: dose: 400.0 mg/kg/injection, schedule: Q04DX002 (ip), vehicle: Klucel (hydroxypropylcellulose) (HPC).
Setting [9] is: dose: 400.0 mg/kg/injection, schedule: Q01DX001 (ip), vehicle: saline.
The mark [10] stands for this setting: dose: 100.0 mg/kg/injection, schedule: Q01DX001 (ip), vehicle: saline.
[11] abbreviates: dose: 200.0 mg/kg/injection, schedule: Q01DX001 (ip), vehicle: saline.
[12] abbreviates: dose: 50.0 mg/kg/injection, schedule: Q01DX001 (ip), vehicle: carboxymethylcellulose (CMC).
[13] abbreviates: dose: 100.0 mg/kg/injection, schedule: Q01DX001 (ip), vehicle: carboxymethylcellulose (CMC).
The mark [14] stands for this setting: dose: 200.0 mg/kg/injection, schedule: Q01DX001 (ip), vehicle: carboxymethylcellulose (CMC).
Setting [15] is: dose: 400.0 mg/kg/injection, schedule: Q01DX001 (ip), vehicle: carboxymethylcellulose (CMC).
[16] abbreviates: dose: 100.0 mg/kg/injection, schedule: Q04DX002 (ip), vehicle: saline with Tween-80.
The mark [17] stands for this setting: dose: 200.0 mg/kg/injection, schedule: Q04DX002 (ip), vehicle: saline with Tween-80.
Where [18] appears, read: dose: 400.0 mg/kg/injection, schedule: Q04DX002 (ip), vehicle: saline with Tween-80.
Where [19] appears, read: dose: 100.0 mg/kg/injection, schedule: Q01DX009 (ip), vehicle: Klucel (hydroxypropylcellulose) (HPC).

Take `O=C(O)CSCCCc1ccccc1`: the T/C is, setting by setting: (dose: 50.0 mg/kg/injection, schedule: Q01DX009 (ip), vehicle: saline with Tween-80) 101 % of control; under setting [1], 95 % of control; under setting [2], 102 % of control; under setting [3], 101 % of control; under setting [4], 102 % of control; under setting [5], 102 % of control.

For the molecule `O=S(NOCc1ccccc1)c1ccccc1` (configuration not stated), the T/C was 107 % of control under setting [6], 107 % of control under setting [7] and 111 % of control under setting [8].

Turning to `CC(=O)OCC1OC(n2ccc(NC(=S)Nc3ccn(C4OC(COC(C)=O)C(OC(C)=O)C4OC(C)=O)c(=O)n3)nc2=O)C(OC(C)=O)C1OC(C)=O` (configuration not stated), the T/C reads like this: under setting [9], 100 % of control; (dose: 400.0 mg/kg/injection, schedule: Q04DX003 (ip), vehicle: saline) 105 % of control; (dose: 800.0 mg/kg/injection, schedule: Q01DX001 (ip), vehicle: saline) 96 % of control; (dose: 800.0 mg/kg/injection, schedule: Q01DX009 (ip), vehicle: saline) 116 % of control; (dose: 800.0 mg/kg/injection, schedule: Q04DX003 (ip), vehicle: saline) 98 % of control; (dose: 1600.0 mg/kg/injection, schedule: Q01DX001 (ip), vehicle: saline) 96 % of control. Further, the T/C (dose: 1600.0 mg/kg/injection, schedule: Q04DX003 (ip), vehicle: saline) is 100 % of control.

As for `O=[N+]([O-])c1ccccc1CC1=NCCc2cc3c(cc21)OCO3`, the T/C runs as follows: under setting [10], 100 % of control; under setting [11], 102 % of control; under setting [9], 104 % of control.

Take `Nc1nc2[nH]ncc2c(=O)[nH]1`: the T/C is 104 % of control under setting [12], 107 % of control under setting [13], 93 % of control under setting [14] and 96 % of control under setting [15].

In the case of `CCN(CC)CCNc1ccccc1Cl`, the T/C was 101 % of control under setting [10] and 101 % of control under setting [11].

On to `CCOc1ccc(NC(N)=O)cc1`, for which the T/C by setting is: (dose: 100.0 mg/kg/injection, schedule: Q04DX002 (ip), vehicle: gum acacia) 107 % of control; (dose: 200.0 mg/kg/injection, schedule: Q04DX002 (ip), vehicle: gum acacia) 95 % of control; (dose: 400.0 mg/kg/injection, schedule: Q04DX002 (ip), vehicle: gum acacia) 100 % of control.

For the molecule `Cc1ccc(N2C=C(c3ccccc3)CC2=O)cc1`, the T/C was 107 % of control under setting [16], 100 % of control under setting [17] and 104 % of control under setting [18].

Regarding `CSc1ncnc2c1nnn2C1OC(CO)C(O)C1O` (configuration not stated), the T/C is, setting by setting: (dose: 12.5 mg/kg/injection, schedule: Q01DX001 (ip), vehicle: saline) 97 % of control; (dose: 25.0 mg/kg/injection, schedule: Q01DX001 (ip), vehicle: saline) 103 % of control; (dose: 50.0 mg/kg/injection, schedule: Q01DX001 (ip), vehicle: saline) 115 % of control; (dose: 75.0 mg/kg/injection, schedule: Q01DX001 (ip), vehicle: saline) 114 % of control; under setting [10], 110 % of control; (dose: 150.0 mg/kg/injection, schedule: Q01DX001 (ip), vehicle: saline) 110 % of control.

On to `NNC(=O)C(=O)NN`, for which the T/C runs as follows: under setting [6], 102 % of control; under setting [7], 98 % of control; under setting [8], 93 % of control.

Take `Nc1nc(=O)n(CCCOc2ccc([N+](=O)[O-])c(Cl)c2)cc1-c1ccc(Cl)c(Cl)c1`: the T/C reads like this: (dose: 25.0 mg/kg/injection, schedule: Q01DX001 (ip), vehicle: saline with Tween-80) 95 % of control; (dose: 50.0 mg/kg/injection, schedule: Q01DX001 (ip), vehicle: saline with Tween-80) 96 % of control; (dose: 100.0 mg/kg/injection, schedule: Q01DX001 (ip), vehicle: saline with Tween-80) 88 % of control.

For the molecule `O=[N+]([O-])c1cc([As](=O)(O)O)ccc1Cl`, the T/C (dose: 50.0 mg/kg/injection, schedule: Q01DX009 (ip), vehicle: Klucel (hydroxypropylcellulose) (HPC)) is 97 % of control; the T/C under setting [19] is 97 % of control; the T/C (dose: 100.0 mg/kg/injection, schedule: Q04DX003 (ip), vehicle: Klucel (hydroxypropylcellulose) (HPC)) was 100 % of control; the T/C (dose: 200.0 mg/kg/injection, schedule: Q04DX003 (ip), vehicle: Klucel (hydroxypropylcellulose) (HPC)) was 104 % of control.

As for `O=C(/C=C/C=C/C=C/C=C/C(=O)N1CCCCC1)N1CCCCC1`, the T/C is 97 % of control under setting [10], 92 % of control under setting [11] and 89 % of control under setting [9].

Consider `O=C1c2ccccc2-c2oc(=O)c3ccccc3c21`, for which the T/C was 96 % of control under setting [12], 96 % of control under setting [13], 94 % of control under setting [14] and 96 % of control under setting [15].

For `CCN(CC)CCOc1ccccc1Br`, the T/C reads like this: (dose: 12.5 mg/kg/injection, schedule: Q04DX003 (ip), vehicle: saline) 97 % of control; (dose: 25.0 mg/kg/injection, schedule: Q01DX009 (ip), vehicle: saline) 95 % of control; (dose: 25.0 mg/kg/injection, schedule: Q04DX003 (ip), vehicle: saline) 96 % of control; (dose: 50.0 mg/kg/injection, schedule: Q01DX009 (ip), vehicle: saline) 98 % of control; (dose: 50.0 mg/kg/injection, schedule: Q04DX003 (ip), vehicle: saline) 97 % of control; (dose: 100.0 mg/kg/injection, schedule: Q04DX003 (ip), vehicle: saline) 100 % of control.

In the case of `CON(C)c1nc(Cl)nc(N(C)OC)n1`, the T/C by setting is: under setting [13], 96 % of control; under setting [19], 97 % of control; under setting [14], 94 % of control; (dose: 200.0 mg/kg/injection, schedule: Q01DX009 (ip), vehicle: Klucel (hydroxypropylcellulose) (HPC)) 105 % of control; under setting [15], 107 % of control; (dose: 400.0 mg/kg/injection, schedule: Q01DX009 (ip), vehicle: Klucel (hydroxypropylcellulose) (HPC)) 105 % of control.

With `OC(C(c1ccccc1)c1ccccn1)(C(F)(F)F)C(F)(F)F` (configuration not stated), the T/C runs as follows: under setting [1], 106 % of control; under setting [2], 94 % of control; under setting [3], 104 % of control; under setting [4], 100 % of control; (dose: 400.0 mg/kg/injection, schedule: Q01DX009 (ip), vehicle: saline with Tween-80) 97 % of control; under setting [5], 97 % of control.

Regarding `CN(C)C=Nc1ncnc2nc[nH]c12`, the T/C was 102 % of control under setting [16], 102 % of control under setting [17] and 109 % of control under setting [18].

For the molecule `CCN=C(c1ccc(NC(=O)c2ccc(C(=O)Nc3ccc(C(=NCC)N(CC)C(=O)C(F)(F)C(F)(F)C(F)(F)F)cc3)cc2)cc1)N(CC)C(=O)C(F)(F)C(F)(F)C(F)(F)F`, the T/C is 96 % of control (dose: 1.5 mg/kg/injection, schedule: Q01DX015 (ip), vehicle: methylcellulose (MC)); 113 % of control (dose: 3.0 mg/kg/injection, schedule: Q01DX015 (ip), vehicle: methylcellulose (MC)); 153 % of control (dose: 7.5 mg/kg/injection, schedule: Q01DX015 (ip), vehicle: methylcellulose (MC)); 124 % of control (dose: 12.0 mg/kg/injection, schedule: Q01DX015 (ip), vehicle: methylcellulose (MC)).

Take `N#Cc1ccc(-c2ccccc2)cc1`: the T/C (dose: 50.0 mg/kg/injection, schedule: Q04DX002 (ip), vehicle: other) was 103 % of control; the T/C (dose: 100.0 mg/kg/injection, schedule: Q04DX002 (ip), vehicle: other) is 95 % of control; the T/C (dose: 200.0 mg/kg/injection, schedule: Q04DX002 (ip), vehicle: other) is 117 % of control.
